Legend:
Type in all cases: physicochemical
[1] = Solubility test; details: for Amount of solvent for dissolving tested drug: about 10 mg tested drug
Method: It should be noted that each crystalline form of Form A, Form B and Form C has similar solubility properties. Hereinafter, Form A0, B0 and C were chosen only for illustrative purpose.
1. Solubility test of the crystalline Form A of Temozolomide (Form A0 prepared by the method of EXAMPLE 1). Solubility properties were assayed respectively by using DMSO, methanol, water, glacial acetic acid, 0.1M HCl, 0.1M NaOH and ethanol as the solvents.
2. Solubility test of the crystalline form B of Temozolomide (Form B0 prepared by the method of EXAMPLE 6). Solubility properties were assayed respectively by using DMSO, methanol, water, glacial acetic acid, 0.1M HCl, 0.1M NaOH and ethanol as the solvents.
3. Solubility test of the crystalline form C of Temozolomide (Form C prepared by the method of EXAMPLE 14). Solubility properties were assayed respectively by using DMSO, methanol, water, glacial acetic acid, 0.1M HCl, 0.1M NaOH and ethanol as the solvents.

[2] = Light exposure test (stability); details: for Appearance and color / Content / Drying loss / Related substances: light intensity 4500±500Lx; for Related substances: HPLC
Method: (§1) In the following test, related substances were determined as follows: HPLC method was used and chromatographic conditions were as follows: C18 column using octadecylsilane bonded silica gel as the filler, isocratic elution using methanol: 0.5% glacial acetic acid solution (10:90) as the mobile phase, and detection wavelength was at 254 nm.
Crystalline form A of Temozolomide (Form A0 prepared by the method of EXAMPLE 1) was exposed under conditions of light intensity of 4500±500Lx, sampled and determined on the 5th and 10th day.
Crystalline form B of Temozolomide (Form B0 prepared by the method of EXAMPLE 6) was placed, exposed under conditions of light intensity of 4500±500Lx, sampled and determined on the 5th and 10th day.
Crystalline Form C of Temozolomide (Form C prepared by the method of EXAMPLE 14) was placed, exposed under conditions of light intensity of 4500±500Lx, sampled and determined on the 5th and 10th day.

[3] = High temperature test (stability); details: for Appearance and color / Content / Drying loss / Related substances: 60° C. incubator; for Related substances: HPLC
Method: as §1
Crystalline form A of Temozolomide (Form A0 prepared by the method of EXAMPLE 1) was placed in 60° C. incubator, sampled and determined on the 5th and 10th day.
Crystalline Form B of Temozolomide (Form B0 prepared by the method of EXAMPLE 6) was placed in 60° C. incubator, sampled and determined on the 5th and 10th day.
Crystalline Form C of Temozolomide (Form C prepared by the method of EXAMPLE 14) was placed in 60° C. incubator, sampled and determined on the 5th and 10th day.

[4] = High humidity test (stability); details: for Related substances: HPLC
Method: as §1
Crystalline Form A of Temozolomide (Form A0 prepared by the method of EXAMPLE 1) was placed in 25° C. incubator (relative humidity: 75±5%), sampled and determined on the 5th and 10th day.
Crystalline Form B of Temozolomide (Form B0 prepared by the method of EXAMPLE 6) was placed in 25° C. incubator (relative humidity: 75±5%), sampled and determined on the 5th and 10th day.
Crystalline Form C of Temozolomide (Form C prepared by the method of EXAMPLE 14) was placed in 25° C. incubator (relative humidity: 75±5%), sampled and determined on the 5th and 10th day.

[5] = Accelerated test (stability); details: 40±2° C., relative humidity 75±5%; for Appearance and color / Content / Related substances: polyethylene film bag; for Related substances: HPLC
Method: as §1
Crystalline Form A of Temozolomide (Form A0 prepared by the method of EXAMPLE 1) was sealed by a polyethylene film bag, placed under conditions of 40±2° C. and a relative humidity of 75±5% for 6 months, sampled and determined at the end of the 1st,2nd, 3rd and 6th month.
Crystalline Form B of Temozolomide (Form B0 prepared by the method of EXAMPLE 6) was sealed with a polyethylene film bag and placed under conditions of 40±2° C. and a relative humidity of 75±5% for 6 months, sampled and determined at the end of the 1st, 2nd, 3rd and 6th month.
Crystalline Form C of Temozolomide (Form C prepared by the method of EXAMPLE 14) was sealed with a polyethylene film bag and placed under conditions of 40±2° C. and a relative humidity of 75±5% for 6 months, sampled and determined at the end of the 1st, 2nd, 3rd and 6th month.

[6] = 25° C., relative humidity 75±5%, 0th day
[7] = 25° C., relative humidity 75±5%, 5th day
[8] = 25° C., relative humidity 75±5%, 10th day

Cn1nnc2c(C(N)=O)ncn2c1=O [Form C, Temozolomide]
Amount of solvent for dissolving 1 g of tested drug ([1]; solvent 0.1M HCl): 800 mL | Solubility ([1]; solvent 0.1M HCl): Slightly soluble | Amount of solvent for dissolving tested drug ([1]; solvent 0.1M HCl): 8.0 mL | Amount of solvent for dissolving 1 g of tested drug ([1]; solvent 0.1M NaOH): 300 mL | Solubility ([1]; solvent 0.1M NaOH): Slightly soluble | Amount of solvent for dissolving tested drug ([1]; solvent 0.1M NaOH): 3.0 mL | Amount of solvent for dissolving 1 g of tested drug ([1]; solvent DMSO): 80 mL | Solubility ([1]; solvent DMSO): sparingly | Amount of solvent for dissolving tested drug ([1]; solvent DMSO): 0.8 mL | Amount of solvent for dissolving 1 g of tested drug ([1]; solvent Ethanol): 6000 mL | Solubility ([1]; solvent Ethanol): Very slightly | Amount of solvent for dissolving tested drug ([1]; solvent Ethanol): 60 mL | Amount of solvent for dissolving 1 g of tested drug ([1]; solvent Glacial acetic acid): 300 mL | Solubility ([1]; solvent Glacial acetic acid): Slightly soluble | Amount of solvent for dissolving tested drug ([1]; solvent Glacial acetic acid): 3.0 mL | Amount of solvent for dissolving 1 g of tested drug ([1]; solvent Methanol): 800 mL | Solubility ([1]; solvent Methanol): Slightly soluble | Amount of solvent for dissolving tested drug ([1]; solvent Methanol): 8.0 mL | Amount of solvent for dissolving 1 g of tested drug ([1]; solvent Water): 800 mL | Solubility ([1]; solvent Water): Slightly soluble | Amount of solvent for dissolving tested drug ([1]; solvent Water): 8.0 mL | Stability in the light exposure test (conclusion) ([2]; 4500±500Lx, 10 days): stable | Appearance and color ([2]; 0th day): White powder | Content ([2]; 0th day): 99.91% | Drying loss ([2]; 0th day): 0.27% | Related substances ([2]; 0th day): Not detected | Appearance and color ([2]; 5th day): White powder | Content ([2]; 5th day): 99.90% | Drying loss ([2]; 5th day): 0.30% | Related substances ([2]; 5th day): Not detected | Appearance and color ([2]; 10th day): White powder | Content ([2]; 10th day): 99.96% | Drying loss ([2]; 10th day): 0.32% | Related substances ([2]; 10th day): Not detected | Appearance and color ([3]; 0th day): White powder | Content ([3]; 0th day): 99.91% | Drying loss ([3]; 0th day): 0.35% | Related substances ([3]; 0th day): Not detected | Appearance and color ([3]; 5th day): White powder | Content ([3]; 5th day): 99.79% | Drying loss ([3]; 5th day): 0.37% | Related substances ([3]; 5th day): Not detected | Appearance and color ([3]; 10th day): White powder | Content ([3]; 10th day): 99.69% | Drying loss ([3]; 10th day): 0.34% | Related substances ([3]; 10th day): Not detected | Stability in the high-temperature test (conclusion) ([3]; 60° C., 10 days): stable | Stability in the high-humidity test (conclusion) ([4]; 25° C., relative humidity 75±5%, 10 days): stable | Appearance and color [4, 6]: White powder | Content [4, 6]: 99.91% | Weight gain of moisture absorption [4, 6]: 0% | Related substances [4, 6]: Not detected | Appearance and color [4, 7]: White powder | Content [4, 7]: 99.85% | Weight gain of moisture absorption [4, 7]: 0.29% | Related substances [4, 7]: Not detected | Appearance and color [4, 8]: White powder | Content [4, 8]: 99.63% | Weight gain of moisture absorption [4, 8]: 0.47% | Related substances [4, 8]: Not detected | Weight gain of moisture absorption (trend) ([4]; under the high-humidity condition): slightly increased | Stability in the accelerated test (conclusion) ([5]; 6 months): stable | Appearance and color ([5]; 0th month): White powder | Content ([5]; 0th month): 99.91% | Related substances ([5]; 0th month): Not detected | Appearance and color ([5]; 1st month): White powder | Content ([5]; 1st month): 99.61% | Related substances ([5]; 1st month): Not detected | Appearance and color ([5]; 2nd month): White powder | Content ([5]; 2nd month): 99.87% | Related substances ([5]; 2nd month): Not detected | Appearance and color ([5]; 3rd month): White powder | Content ([5]; 3rd month): 99.93% | Related substances ([5]; 3rd month): Not detected | Appearance and color ([5]; 6th month): White powder | Content ([5]; 6th month): 99.65% | Related substances ([5]; 6th month): Not detected
